From ChEMBL document CHEMBL1157156, “A novel sesquiterpene lactone from Centaurea pullata: structure elucidation, antimicrobial activity, and prediction of pharmacokinetic properties” (2008)
≈ marks a conversion by molar mass, not a printed value.

Tests used:
Bacillus subtilis = assay: Antimicrobial activity against Bacillus subtilis ATCC 10907 by serial dilution technique; type: functional
Micrococcus luteus = assay: Antimicrobial activity against Micrococcus flavus ATCC 10240 by serial dilution technique; type: functional
[1] = test system: Staphylococcus epidermidis; assay: Antimicrobial activity against Staphylococcus epidermidis ATCC 12228 by serial dilution technique; type: functional
Escherichia coli = assay: Antimicrobial activity against Escherichia coli ATCC 35210 by serial dilution technique; type: functional
Pseudomonas tolaasii = assay: Antimicrobial activity against Pseudomonas tolaasii by serial dilution technique; type: functional
Salmonella enteritidis = assay: Antimicrobial activity against Salmonella enteritidis ATCC 13076 by serial dilution technique; type: functional, Salmonella enterica subsp. enterica serovar Enteritidis; conditions: Salmonella enterica
Alternaria alternata = assay: Antimicrobial activity against Alternaria alternata DMS2006 by serial dilution technique; type: functional
Aspergillus flavus = assay: Antimicrobial activity against Aspergillus flavus ATCC 9643 by serial dilution technique; type: functional
Aspergillus niger = assay: Antimicrobial activity against Aspergillus niger ATCC 6275 by serial dilution technique; type: functional
Aspergillus ochraceus = assay: Antimicrobial activity against Aspergillus ochraceus ATCC 12066 by serial dilution technique; type: functional
Fusarium tricinctum = assay: Antimicrobial activity against Fusarium tricinctum by serial dilution technique; type: functional
Talaromyces funiculosus = assay: Antimicrobial activity against Penicillium funiculosum ATCC 36839 by serial dilution technique; type: functional
Penicillium ochrochloron = assay: Antimicrobial activity against Penicillium ochrochloron ATCC 9112 by serial dilution technique; type: functional
Trichoderma viride = assay: Antimicrobial activity against Trichoderma viride IAM5061 by serial dilution technique; type: functional

| Structure (SMILES) | MIC (Bacillus subtilis) [µM] | MIC (Micrococcus luteus) [µM] | MIC [1] [µM] | MIC (Escherichia coli) [µM] | MIC (Pseudomonas tolaasii) [µM] | MIC (Salmonella enteritidis) [µM] | MIC (Alternaria alternata) [µM] | MIC (Aspergillus flavus) [µM] | MIC (Aspergillus niger) [µM] | MIC (Aspergillus ochraceus) [µM] | MBC (Bacillus subtilis) [µM] | MBC (Micrococcus luteus) [µM] | MBC [1] [µM] | MBC (Pseudomonas tolaasii) [µM] | MBC (Salmonella enteritidis) [µM] | MFC (Alternaria alternata) [µM] | MFC (Aspergillus flavus) [µM] | MFC (Aspergillus niger) [µM] | MFC (Aspergillus ochraceus) [µM] | MFC (Fusarium tricinctum) [µM] | further results |
| --- | --- | --- | --- | --- | --- | --- | --- | --- | --- | --- | --- | --- | --- | --- | --- | --- | --- | --- | --- | --- | --- |
| C/C1=C\CC/C(CO)=C/[C@H]2OC(=O)[C@@H](C)[C@@H]2[C@@H](O)C1 | 0.8 (≈ 0.213 µg/mL) | 1.1 (≈ 0.293 µg/mL) | 1.5 (≈ 0.4 µg/mL) | 1.5 (≈ 0.4 µg/mL) | 0.8 (≈ 0.213 µg/mL) | 1.1 (≈ 0.293 µg/mL) | 0.7 (≈ 0.186 µg/mL) | 0.3 (≈ 0.0799 µg/mL) | 0.7 (≈ 0.186 µg/mL) | 0.7 (≈ 0.186 µg/mL) | 1.1 (≈ 0.293 µg/mL) | 1.1 (≈ 0.293 µg/mL) | 1.9 (≈ 0.506 µg/mL) | 0.8 (≈ 0.213 µg/mL) | 1.5 (≈ 0.4 µg/mL) | 0.7 (≈ 0.186 µg/mL) | 0.7 (≈ 0.186 µg/mL) | 0.7 (≈ 0.186 µg/mL) | 0.7 (≈ 0.186 µg/mL) | 0.7 (≈ 0.186 µg/mL) | MIC (Fusarium tricinctum): 0.7 µM (≈ 0.186 µg/mL); MFC (Talaromyces funiculosus): 0.7 µM (≈ 0.186 µg/mL); MIC (Talaromyces funiculosus): 0.7 µM (≈ 0.186 µg/mL); MFC (Penicillium ochrochloron): 0.7 µM (≈ 0.186 µg/mL); MIC (Penicillium ochrochloron): 0.7 µM (≈ 0.186 µg/mL); MFC (Trichoderma viride): 0.7 µM (≈ 0.186 µg/mL); MIC (Trichoderma viride): 0.3 µM (≈ 0.0799 µg/mL) |
| C=C[C@]1(C)C[C@H](O)[C@@H]2[C@H](OC(=O)[C@H]2C)[C@H]1C(=C)CO | 1.5 (≈ 0.4 µg/mL) | 2.3 (≈ 0.613 µg/mL) | 2.3 (≈ 0.613 µg/mL) | 2.3 (≈ 0.613 µg/mL) | 2.3 (≈ 0.613 µg/mL) | 2.3 (≈ 0.613 µg/mL) | 0.7 (≈ 0.186 µg/mL) | 0.7 (≈ 0.186 µg/mL) | 0.7 (≈ 0.186 µg/mL) | 0.7 (≈ 0.186 µg/mL) | 2.3 (≈ 0.613 µg/mL) | 2.3 (≈ 0.613 µg/mL) | 2.3 (≈ 0.613 µg/mL) | 2.3 (≈ 0.613 µg/mL) | 2.3 (≈ 0.613 µg/mL) | 0.7 (≈ 0.186 µg/mL) | 0.7 (≈ 0.186 µg/mL) | 0.7 (≈ 0.186 µg/mL) | 0.7 (≈ 0.186 µg/mL) | 0.7 (≈ 0.186 µg/mL) | MIC (Fusarium tricinctum): 0.7 µM (≈ 0.186 µg/mL); MFC (Talaromyces funiculosus): 0.7 µM (≈ 0.186 µg/mL); MIC (Talaromyces funiculosus): 0.7 µM (≈ 0.186 µg/mL); MFC (Penicillium ochrochloron): 0.7 µM (≈ 0.186 µg/mL); MIC (Penicillium ochrochloron): 0.7 µM (≈ 0.186 µg/mL); MFC (Trichoderma viride): 0.7 µM (≈ 0.186 µg/mL); MIC (Trichoderma viride): 0.3 µM (≈ 0.0799 µg/mL) |
| Clc1ccc(COC(Cn2ccnc2)c2ccc(Cl)cc2Cl)c(Cl)c1 (configuration not stated) [MICONAZOLE] |  |  |  |  |  |  | 0.4 (≈ 0.166 µg/mL) | 1 (≈ 0.416 µg/mL) | 3 (≈ 1.25 µg/mL) | 3 (≈ 1.25 µg/mL) |  |  |  |  |  | 2 (≈ 0.832 µg/mL) | 4 (≈ 1.66 µg/mL) | 8 (≈ 3.33 µg/mL) | 8 (≈ 3.33 µg/mL) | 2 (≈ 0.832 µg/mL) | MIC (Fusarium tricinctum): 0.4 µM (≈ 0.166 µg/mL); MFC (Talaromyces funiculosus): 10 µM (≈ 4.16 µg/mL); MIC (Talaromyces funiculosus): 4 µM (≈ 1.66 µg/mL); MFC (Penicillium ochrochloron): 10 µM (≈ 4.16 µg/mL); MIC (Penicillium ochrochloron): 4 µM (≈ 1.66 µg/mL); MFC (Trichoderma viride): 4 µM (≈ 1.66 µg/mL); MIC (Trichoderma viride): 4 µM (≈ 1.66 µg/mL) |
| CN[C@@H]1[C@H](O[C@H]2[C@H](O[C@H]3[C@H](O)[C@@H](O)[C@H](N=C(N)N)[C@@H](O)[C@@H]3N=C(N)N)O[C@@H](C)[C@]2(O)C=O)O[C@@H](CO)[C@H](O)[C@H]1O [STREPTOMYCIN] | 0.8 (≈ 0.465 µg/mL) | 0.8 (≈ 0.465 µg/mL) | 1.6 (≈ 0.931 µg/mL) | 0.8 (≈ 0.465 µg/mL) | 1.6 (≈ 0.931 µg/mL) | 1.6 (≈ 0.931 µg/mL) |  |  |  |  | 0.8 (≈ 0.465 µg/mL) | 1.6 (≈ 0.931 µg/mL) | 1.6 (≈ 0.931 µg/mL) | 1.6 (≈ 0.931 µg/mL) | 1.6 (≈ 0.931 µg/mL) |  |  |  |  |  |  |

Further compounds by falling MIC (Bacillus subtilis), results first:

| MIC (Bacillus subtilis) [µM] | MIC (Micrococcus luteus) [µM] | MIC [1] [µM] | MIC (Escherichia coli) [µM] | MIC (Pseudomonas tolaasii) [µM] | MIC (Salmonella enteritidis) [µM] | MIC (Alternaria alternata) [µM] | MIC (Aspergillus flavus) [µM] | MIC (Aspergillus niger) [µM] | MIC (Aspergillus ochraceus) [µM] | Structure (SMILES) | MBC (Bacillus subtilis) [µM] | MBC (Micrococcus luteus) [µM] | MBC [1] [µM] | MBC (Pseudomonas tolaasii) [µM] | MBC (Salmonella enteritidis) [µM] | MFC (Alternaria alternata) [µM] | MFC (Aspergillus flavus) [µM] | MFC (Aspergillus niger) [µM] | MFC (Aspergillus ochraceus) [µM] | MFC (Fusarium tricinctum) [µM] | further results |
| --- | --- | --- | --- | --- | --- | --- | --- | --- | --- | --- | --- | --- | --- | --- | --- | --- | --- | --- | --- | --- | --- |
| 0.7 (≈ 0.198 µg/mL) | 0.7 (≈ 0.198 µg/mL) | 1 (≈ 0.282 µg/mL) | 1 (≈ 0.282 µg/mL) | 0.7 (≈ 0.198 µg/mL) | 0.7 (≈ 0.198 µg/mL) | 0.3 (≈ 0.0847 µg/mL) | 0.3 (≈ 0.0847 µg/mL) | 0.3 (≈ 0.0847 µg/mL) | 0.3 (≈ 0.0847 µg/mL) | C[C@@H]1C(=O)O[C@H]2[C@H]1[C@@H](O)C[C@]1(C)[C@@H]2[C@@H](C=O)CC[C@H]1O | 0.7 (≈ 0.198 µg/mL) | 0.7 (≈ 0.198 µg/mL) | 1.4 (≈ 0.395 µg/mL) | 0.7 (≈ 0.198 µg/mL) | 1 (≈ 0.282 µg/mL) | 0.3 (≈ 0.0847 µg/mL) | 0.3 (≈ 0.0847 µg/mL) | 0.3 (≈ 0.0847 µg/mL) | 0.3 (≈ 0.0847 µg/mL) | 0.3 (≈ 0.0847 µg/mL) | MIC (Fusarium tricinctum): 0.3 µM (≈ 0.0847 µg/mL); MFC (Talaromyces funiculosus): 0.7 µM (≈ 0.198 µg/mL); MIC (Talaromyces funiculosus): 0.7 µM (≈ 0.198 µg/mL); MFC (Penicillium ochrochloron): 0.7 µM (≈ 0.198 µg/mL); MIC (Penicillium ochrochloron): 0.3 µM (≈ 0.0847 µg/mL); MFC (Trichoderma viride): 0.7 µM (≈ 0.198 µg/mL); MIC (Trichoderma viride): 0.7 µM (≈ 0.198 µg/mL) |
| 0.3 (≈ 0.0799 µg/mL) | 0.5 (≈ 0.133 µg/mL) | 0.7 (≈ 0.186 µg/mL) | 0.5 (≈ 0.133 µg/mL) | 0.7 (≈ 0.186 µg/mL) | 0.3 (≈ 0.0799 µg/mL) | 0.2 (≈ 0.0533 µg/mL) | 0.2 (≈ 0.0533 µg/mL) | 0.6 (≈ 0.16 µg/mL) | 0.4 (≈ 0.107 µg/mL) | C[C@@H]1C(=O)O[C@@H]2C3[C@H](C=O)CCC[C@]3(C)C[C@H](O)[C@@H]12 (some centres not stated) | 0.5 (≈ 0.133 µg/mL) | 0.7 (≈ 0.186 µg/mL) | 1.1 (≈ 0.293 µg/mL) | 1.1 (≈ 0.293 µg/mL) | 0.5 (≈ 0.133 µg/mL) | 0.2 (≈ 0.0533 µg/mL) | 0.4 (≈ 0.107 µg/mL) | 0.6 (≈ 0.16 µg/mL) | 0.4 (≈ 0.107 µg/mL) | 0.4 (≈ 0.107 µg/mL) | MIC (Fusarium tricinctum): 0.2 µM (≈ 0.0533 µg/mL); MFC (Talaromyces funiculosus): 0.6 µM (≈ 0.16 µg/mL); MIC (Talaromyces funiculosus): 0.4 µM (≈ 0.107 µg/mL); MFC (Penicillium ochrochloron): 0.4 µM (≈ 0.107 µg/mL); MIC (Penicillium ochrochloron): 0.4 µM (≈ 0.107 µg/mL); MFC (Trichoderma viride): 0.4 µM (≈ 0.107 µg/mL); MIC (Trichoderma viride): 0.4 µM (≈ 0.107 µg/mL) |
| 0.2 (≈ 0.0729 µg/mL) | 0.4 (≈ 0.146 µg/mL) | 0.5 (≈ 0.182 µg/mL) | 0.4 (≈ 0.146 µg/mL) | 0.5 (≈ 0.182 µg/mL) | 0.2 (≈ 0.0729 µg/mL) | 0.1 (≈ 0.0364 µg/mL) | 0.1 (≈ 0.0364 µg/mL) | 0.3 (≈ 0.109 µg/mL) | 0.2 (≈ 0.0729 µg/mL) | C=C[C@]1(C)C[C@H](OC(=O)C(=C)CCO)[C@@H]2[C@H](OC(=O)[C@H]2C)[C@H]1C(=C)CO | 0.4 (≈ 0.146 µg/mL) | 0.5 (≈ 0.182 µg/mL) | 0.8 (≈ 0.292 µg/mL) | 0.8 (≈ 0.292 µg/mL) | 0.4 (≈ 0.146 µg/mL) | 0.1 (≈ 0.0364 µg/mL) | 0.2 (≈ 0.0729 µg/mL) | 0.3 (≈ 0.109 µg/mL) | 0.2 (≈ 0.0729 µg/mL) | 0.2 (≈ 0.0729 µg/mL) | MIC (Fusarium tricinctum): 0.1 µM (≈ 0.0364 µg/mL); MFC (Talaromyces funiculosus): 0.3 µM (≈ 0.109 µg/mL); MIC (Talaromyces funiculosus): 0.2 µM (≈ 0.0729 µg/mL); MFC (Penicillium ochrochloron): 0.2 µM (≈ 0.0729 µg/mL); MIC (Penicillium ochrochloron): 0.2 µM (≈ 0.0729 µg/mL); MFC (Trichoderma viride): 0.2 µM (≈ 0.0729 µg/mL); MIC (Trichoderma viride): 0.2 µM (≈ 0.0729 µg/mL) |
